One experiment concerns the target Actin-related protein 2 (Homo sapiens, UniProt P61160).
Experiment [1] has as its target Casein kinase II subunit alpha' (Homo sapiens, UniProt P19784).
In another experiment the target is LIM domain kinase 2 (Homo sapiens, UniProt P53671).
Experiment [2] addresses Tyrosine-protein kinase Lyn (Homo sapiens, UniProt P07948).
Experiment [3] addresses Dual specificity mitogen-activated protein kinase kinase 1 (Homo sapiens, UniProt Q02750).
The target in experiment [4] is T1, Dual specificity mitogen-activated protein kinase kinase 6 (Homo sapiens, UniProt P52564).
T1 sequence (P52564 whole entry): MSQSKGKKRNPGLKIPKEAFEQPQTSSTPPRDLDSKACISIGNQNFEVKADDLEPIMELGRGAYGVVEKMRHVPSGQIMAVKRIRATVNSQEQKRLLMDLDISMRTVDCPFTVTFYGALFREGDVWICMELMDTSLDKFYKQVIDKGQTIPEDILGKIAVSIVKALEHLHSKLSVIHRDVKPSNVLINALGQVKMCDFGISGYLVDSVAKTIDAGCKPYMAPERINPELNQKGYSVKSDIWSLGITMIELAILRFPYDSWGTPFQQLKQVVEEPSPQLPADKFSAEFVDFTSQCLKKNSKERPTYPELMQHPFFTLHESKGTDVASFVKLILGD

The target in experiment [5] is T2, Mitogen-activated protein kinase kinase kinase 3 (Homo sapiens, UniProt Q99759).
T2 sequence (Q99759 whole entry): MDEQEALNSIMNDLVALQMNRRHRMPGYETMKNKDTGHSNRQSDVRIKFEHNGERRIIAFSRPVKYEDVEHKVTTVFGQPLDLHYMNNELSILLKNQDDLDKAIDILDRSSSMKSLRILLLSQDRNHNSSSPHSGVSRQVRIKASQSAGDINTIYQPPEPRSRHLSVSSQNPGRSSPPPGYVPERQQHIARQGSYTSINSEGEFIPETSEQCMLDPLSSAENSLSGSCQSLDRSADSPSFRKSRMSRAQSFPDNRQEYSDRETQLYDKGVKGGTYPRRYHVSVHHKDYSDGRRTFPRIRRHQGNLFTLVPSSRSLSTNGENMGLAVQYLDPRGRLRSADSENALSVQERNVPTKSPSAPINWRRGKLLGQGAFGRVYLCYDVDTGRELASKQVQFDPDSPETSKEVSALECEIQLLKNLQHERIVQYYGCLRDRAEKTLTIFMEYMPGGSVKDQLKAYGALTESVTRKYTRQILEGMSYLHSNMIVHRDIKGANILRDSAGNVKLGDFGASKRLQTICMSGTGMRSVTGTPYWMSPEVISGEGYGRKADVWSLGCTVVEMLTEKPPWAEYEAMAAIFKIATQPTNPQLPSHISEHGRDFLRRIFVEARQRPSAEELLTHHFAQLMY

For experiment [6], the target named is MAP/microtubule affinity-regulating kinase 3 (Homo sapiens, UniProt P27448).
Sequence of MAP/microtubule affinity-regulating kinase 3 (P27448 whole entry): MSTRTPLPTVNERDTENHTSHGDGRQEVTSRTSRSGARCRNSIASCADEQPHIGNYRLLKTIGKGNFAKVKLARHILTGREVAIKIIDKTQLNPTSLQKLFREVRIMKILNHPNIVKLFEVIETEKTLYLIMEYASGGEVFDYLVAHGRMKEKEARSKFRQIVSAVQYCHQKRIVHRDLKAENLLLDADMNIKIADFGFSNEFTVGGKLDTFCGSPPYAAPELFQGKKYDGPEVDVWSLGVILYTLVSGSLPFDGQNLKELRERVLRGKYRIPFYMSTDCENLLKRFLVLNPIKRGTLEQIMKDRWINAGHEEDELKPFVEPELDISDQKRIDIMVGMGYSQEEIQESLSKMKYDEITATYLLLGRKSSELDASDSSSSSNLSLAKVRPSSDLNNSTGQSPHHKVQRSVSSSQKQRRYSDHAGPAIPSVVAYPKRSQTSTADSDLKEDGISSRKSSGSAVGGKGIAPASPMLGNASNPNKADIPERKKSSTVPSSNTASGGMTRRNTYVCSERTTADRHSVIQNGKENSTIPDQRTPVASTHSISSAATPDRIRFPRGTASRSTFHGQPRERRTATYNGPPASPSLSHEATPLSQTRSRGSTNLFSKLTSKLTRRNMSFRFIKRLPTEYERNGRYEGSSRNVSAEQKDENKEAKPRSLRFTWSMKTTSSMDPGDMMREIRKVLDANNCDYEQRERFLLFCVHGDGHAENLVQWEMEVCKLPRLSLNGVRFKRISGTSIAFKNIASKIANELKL
Experiment [7] deals with Maternal embryonic leucine zipper kinase (Homo sapiens, UniProt Q14680).
Sequence of Maternal embryonic leucine zipper kinase (Q14680 whole entry): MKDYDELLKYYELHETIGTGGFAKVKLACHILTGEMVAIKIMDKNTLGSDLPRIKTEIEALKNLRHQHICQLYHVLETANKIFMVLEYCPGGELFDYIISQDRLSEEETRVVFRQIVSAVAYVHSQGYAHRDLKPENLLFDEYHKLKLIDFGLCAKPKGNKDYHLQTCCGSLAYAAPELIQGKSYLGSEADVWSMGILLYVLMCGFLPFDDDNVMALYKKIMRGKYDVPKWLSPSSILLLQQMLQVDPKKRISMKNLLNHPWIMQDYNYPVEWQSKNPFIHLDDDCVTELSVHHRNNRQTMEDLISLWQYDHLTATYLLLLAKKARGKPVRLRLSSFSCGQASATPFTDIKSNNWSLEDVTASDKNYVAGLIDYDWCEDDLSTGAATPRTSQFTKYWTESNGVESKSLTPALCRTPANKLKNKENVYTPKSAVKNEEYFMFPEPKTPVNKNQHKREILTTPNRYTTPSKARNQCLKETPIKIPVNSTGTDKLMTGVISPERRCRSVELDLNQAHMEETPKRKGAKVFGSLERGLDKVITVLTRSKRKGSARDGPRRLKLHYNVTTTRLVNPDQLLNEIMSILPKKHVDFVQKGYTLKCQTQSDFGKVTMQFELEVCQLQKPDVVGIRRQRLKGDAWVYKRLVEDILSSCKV
The target in experiment [8] is T3, Serine/threonine-protein kinase D3 (Homo sapiens, UniProt O94806).
T3 sequence (O94806 whole entry): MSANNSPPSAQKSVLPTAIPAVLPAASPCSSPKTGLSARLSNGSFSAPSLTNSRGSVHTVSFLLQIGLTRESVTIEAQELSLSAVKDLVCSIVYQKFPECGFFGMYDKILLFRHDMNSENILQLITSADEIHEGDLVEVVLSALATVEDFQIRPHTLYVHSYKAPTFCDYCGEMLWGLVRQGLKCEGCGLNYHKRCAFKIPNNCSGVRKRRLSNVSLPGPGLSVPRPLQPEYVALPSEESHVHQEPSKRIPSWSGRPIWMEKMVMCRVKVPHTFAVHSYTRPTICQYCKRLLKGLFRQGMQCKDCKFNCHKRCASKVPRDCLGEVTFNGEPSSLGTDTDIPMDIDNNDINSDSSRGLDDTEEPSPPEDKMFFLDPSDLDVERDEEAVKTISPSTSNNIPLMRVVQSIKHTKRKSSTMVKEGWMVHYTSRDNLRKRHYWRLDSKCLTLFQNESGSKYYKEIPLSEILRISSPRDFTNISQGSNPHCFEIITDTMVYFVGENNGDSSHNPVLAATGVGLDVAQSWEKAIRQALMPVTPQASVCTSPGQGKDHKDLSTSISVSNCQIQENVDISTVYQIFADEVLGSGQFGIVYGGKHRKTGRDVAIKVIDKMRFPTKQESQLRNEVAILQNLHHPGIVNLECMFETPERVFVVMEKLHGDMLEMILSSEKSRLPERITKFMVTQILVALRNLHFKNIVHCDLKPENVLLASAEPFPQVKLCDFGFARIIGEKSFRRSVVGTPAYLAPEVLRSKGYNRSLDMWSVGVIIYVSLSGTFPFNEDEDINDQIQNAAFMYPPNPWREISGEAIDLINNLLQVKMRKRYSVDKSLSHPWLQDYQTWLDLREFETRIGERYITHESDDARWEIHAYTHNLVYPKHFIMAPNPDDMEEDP

Experiment [9] concerns the target Ribosomal protein S6 kinase alpha-5 (Homo sapiens, UniProt O75582).
For experiment [10], the target named is Ribosomal protein S6 kinase beta-1 (Homo sapiens, UniProt P23443).
Sequence of Ribosomal protein S6 kinase beta-1 (P23443 whole entry): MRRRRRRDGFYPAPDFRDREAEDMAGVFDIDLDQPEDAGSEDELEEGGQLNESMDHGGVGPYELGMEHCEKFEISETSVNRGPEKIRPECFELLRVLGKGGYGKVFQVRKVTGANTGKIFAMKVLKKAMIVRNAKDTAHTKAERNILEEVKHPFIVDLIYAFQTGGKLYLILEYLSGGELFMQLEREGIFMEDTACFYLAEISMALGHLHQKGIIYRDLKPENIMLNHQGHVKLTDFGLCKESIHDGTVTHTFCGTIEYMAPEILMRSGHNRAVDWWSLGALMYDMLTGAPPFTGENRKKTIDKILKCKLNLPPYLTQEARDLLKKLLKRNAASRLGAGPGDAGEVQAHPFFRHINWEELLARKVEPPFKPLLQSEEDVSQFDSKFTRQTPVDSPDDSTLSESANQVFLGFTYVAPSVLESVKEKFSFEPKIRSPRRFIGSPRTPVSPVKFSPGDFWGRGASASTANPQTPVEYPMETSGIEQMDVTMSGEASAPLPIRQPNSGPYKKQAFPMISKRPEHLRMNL
Experiment [11] concerns the target Tyrosine-protein kinase SYK (Homo sapiens, UniProt P43405).

Activity calls are given as the source filed them. Cut-off read from the data, not from the text of the source, for most assays here: actives have a measured Kd and inactives only a lower limit.
Note: in the data inactive means no Kd found up to 30 µM.

Sequence of Tyrosine-protein kinase Lyn (P07948 whole entry): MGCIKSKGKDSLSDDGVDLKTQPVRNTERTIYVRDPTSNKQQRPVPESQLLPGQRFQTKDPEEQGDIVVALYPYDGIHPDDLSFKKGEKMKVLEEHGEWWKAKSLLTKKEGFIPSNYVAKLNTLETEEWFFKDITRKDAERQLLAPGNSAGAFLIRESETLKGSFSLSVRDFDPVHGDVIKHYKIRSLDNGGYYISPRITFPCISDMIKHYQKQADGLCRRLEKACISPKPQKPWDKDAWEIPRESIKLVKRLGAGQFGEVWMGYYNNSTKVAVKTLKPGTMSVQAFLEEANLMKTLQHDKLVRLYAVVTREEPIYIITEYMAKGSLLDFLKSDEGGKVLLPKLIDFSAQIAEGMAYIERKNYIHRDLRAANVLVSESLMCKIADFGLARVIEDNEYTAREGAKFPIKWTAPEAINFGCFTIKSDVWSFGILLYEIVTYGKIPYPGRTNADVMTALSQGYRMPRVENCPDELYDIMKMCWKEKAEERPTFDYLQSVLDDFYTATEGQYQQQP
Sequence of LIM domain kinase 2 (P53671 whole entry, the tested form may be a part): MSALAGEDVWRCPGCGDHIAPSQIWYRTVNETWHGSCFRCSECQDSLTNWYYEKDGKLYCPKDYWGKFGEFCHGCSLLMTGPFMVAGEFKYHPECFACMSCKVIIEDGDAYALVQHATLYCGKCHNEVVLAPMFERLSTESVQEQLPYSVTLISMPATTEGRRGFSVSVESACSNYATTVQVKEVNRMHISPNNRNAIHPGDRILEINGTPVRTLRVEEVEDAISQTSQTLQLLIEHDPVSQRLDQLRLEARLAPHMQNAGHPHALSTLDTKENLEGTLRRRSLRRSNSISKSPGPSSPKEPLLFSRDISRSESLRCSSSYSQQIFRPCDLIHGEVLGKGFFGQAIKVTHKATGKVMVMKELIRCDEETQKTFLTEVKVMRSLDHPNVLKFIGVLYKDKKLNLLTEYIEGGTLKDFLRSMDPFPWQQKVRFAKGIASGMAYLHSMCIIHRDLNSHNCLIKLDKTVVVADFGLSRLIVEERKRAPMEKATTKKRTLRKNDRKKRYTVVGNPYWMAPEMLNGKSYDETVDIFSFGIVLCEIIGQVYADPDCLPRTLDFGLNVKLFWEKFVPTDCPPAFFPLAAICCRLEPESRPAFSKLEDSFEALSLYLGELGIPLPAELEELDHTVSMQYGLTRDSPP
Sequence of Casein kinase II subunit alpha' (P19784 whole entry, the tested form may be a part): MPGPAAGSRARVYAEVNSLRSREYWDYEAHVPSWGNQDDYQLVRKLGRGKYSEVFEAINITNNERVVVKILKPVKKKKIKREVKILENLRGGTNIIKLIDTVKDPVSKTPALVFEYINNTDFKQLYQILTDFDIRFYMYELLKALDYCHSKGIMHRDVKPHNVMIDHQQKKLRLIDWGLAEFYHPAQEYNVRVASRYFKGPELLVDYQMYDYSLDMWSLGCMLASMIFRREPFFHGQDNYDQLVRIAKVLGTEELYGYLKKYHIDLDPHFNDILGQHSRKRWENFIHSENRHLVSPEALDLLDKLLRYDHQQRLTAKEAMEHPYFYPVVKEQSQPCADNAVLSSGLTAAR
Sequence of Dual specificity mitogen-activated protein kinase kinase 1 (Q02750 whole entry): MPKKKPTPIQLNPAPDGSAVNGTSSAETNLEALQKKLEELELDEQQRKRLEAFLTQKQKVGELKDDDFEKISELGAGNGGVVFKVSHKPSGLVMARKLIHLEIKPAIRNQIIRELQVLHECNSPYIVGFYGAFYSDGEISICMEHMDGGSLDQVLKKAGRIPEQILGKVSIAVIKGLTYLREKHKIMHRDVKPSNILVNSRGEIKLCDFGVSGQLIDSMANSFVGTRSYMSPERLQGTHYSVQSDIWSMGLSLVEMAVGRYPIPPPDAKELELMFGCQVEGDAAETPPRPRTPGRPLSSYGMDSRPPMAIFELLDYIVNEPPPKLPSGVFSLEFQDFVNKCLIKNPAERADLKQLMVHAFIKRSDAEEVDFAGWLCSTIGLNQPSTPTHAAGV
Sequence of Ribosomal protein S6 kinase alpha-5 (O75582 whole entry): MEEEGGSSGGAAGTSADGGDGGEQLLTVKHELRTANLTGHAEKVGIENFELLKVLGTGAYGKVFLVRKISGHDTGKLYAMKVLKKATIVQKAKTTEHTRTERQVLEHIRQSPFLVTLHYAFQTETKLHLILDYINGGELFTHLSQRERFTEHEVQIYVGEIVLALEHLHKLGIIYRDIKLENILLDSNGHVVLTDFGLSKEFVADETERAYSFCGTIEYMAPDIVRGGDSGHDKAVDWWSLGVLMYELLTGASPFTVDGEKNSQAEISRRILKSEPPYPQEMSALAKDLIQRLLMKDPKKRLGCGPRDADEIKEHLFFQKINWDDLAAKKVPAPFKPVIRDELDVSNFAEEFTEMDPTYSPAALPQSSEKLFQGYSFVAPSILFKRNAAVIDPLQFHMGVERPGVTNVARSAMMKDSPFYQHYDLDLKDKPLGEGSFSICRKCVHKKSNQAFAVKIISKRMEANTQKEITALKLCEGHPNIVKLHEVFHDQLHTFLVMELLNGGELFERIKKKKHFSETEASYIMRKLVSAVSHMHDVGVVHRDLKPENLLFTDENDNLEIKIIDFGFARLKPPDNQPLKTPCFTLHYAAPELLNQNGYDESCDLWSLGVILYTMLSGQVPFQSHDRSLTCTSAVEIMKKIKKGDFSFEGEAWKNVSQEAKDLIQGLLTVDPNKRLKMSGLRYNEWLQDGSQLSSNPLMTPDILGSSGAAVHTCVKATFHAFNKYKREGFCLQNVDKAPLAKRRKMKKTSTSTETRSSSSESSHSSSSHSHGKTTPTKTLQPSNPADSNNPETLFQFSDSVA

For orientation: Kd means the free concentration of one partner at which half of the binding sites on the other are occupied at equilibrium, for simple one-to-one binding. Take `CO[C@H]1C[C@@H]2CC[C@@H](C)[C@@](O)(O2)C(=O)C(=O)N2CCCC[C@H]2C(=O)O[C@H]([C@H](C)C[C@@H]2CC[C@@H](OCCO)[C@H](OC)C2)CC(=O)[C@H](C)/C=C(\C)[C@@H](O)[C@@H](OC)C(=O)[C@H](C)C[C@H](C)/C=C/C=C/C=C/1C` [EVEROLIMUS]: the Kd (at Actin-related protein 2; in experiment [1]; at LIM domain kinase 2; in experiment [2]; in [3]; in [4]) was > 30 µM (inactive) throughout. The Kd in experiment [5], in experiment [6], in experiment [7], in [8], in experiment [9] and in experiment [10] was > 30 µM (inactive) each time. Moreover, the Kd in experiment [11] is > 30 µM (inactive).

On to `Cc1ccc(NC(=O)c2ccc(CN3CC[C@H](N(C)C)C3)c(C(F)(F)F)c2)cc1Nc1nccc(-c2cncnc2)n1` [BAFETINIB], for which the Kd on Actin-related protein 2 was > 30 µM (inactive); in experiment [1], > 30 µM (inactive); on LIM domain kinase 2, > 30 µM (inactive); in [2], 0.239 µM (active); in experiment [3], > 30 µM (inactive); in experiment [4], > 30 µM (inactive). Moreover, the Kd in experiment [5], in experiment [6], in experiment [7], in experiment [8], in experiment [9] and in [10] was > 30 µM (inactive) each time. The Kd in [11] was > 30 µM (inactive).

For the compound `O=C1NC(=O)/C(=C/c2ccc3nccc(-c4ccncc4)c3c2)S1` [GSK-1059615], the Kd on Actin-related protein 2 is > 30 µM (inactive); in [1], 0.017 µM (active); on LIM domain kinase 2, > 30 µM (inactive); in experiment [2] it was > 30 µM (inactive); in experiment [3], 18.5 µM (active); in [4], > 30 µM (inactive). Also, the Kd in [5], in experiment [6], in experiment [7], in [8], in experiment [9] and in [10] was > 30 µM (inactive) each time. For the same compound, the Kd in experiment [11] is > 30 µM (inactive).

Take `C=CC(=O)N1CCC(Oc2cc3c(Nc4ccc(Cl)c(Cl)c4F)ncnc3cc2OC)CC1` [POZIOTINIB]: the Kd (at LIM domain kinase 2; in experiment [2]; in [3]; in experiment [4]; in experiment [5]; in experiment [6]) was > 30 µM (inactive) each time. Also, the Kd in [7], in experiment [8], in [9], in experiment [10] and in experiment [11] was > 30 µM (inactive) each time.

`COc1cc(N2CCC(N3CCN(C)CC3)CC2)ccc1Nc1ncnc(Nc2ccccc2S(=O)(=O)C(C)C)n1` [ASP-3026]: the Kd in [1] is > 30 µM (inactive); on LIM domain kinase 2, 5.31 µM (active); in [2] it was > 30 µM (inactive); in [3], > 30 µM (inactive); in experiment [4], > 30 µM (inactive); in [5], > 30 µM (inactive). For the same compound, the Kd in [6], in experiment [7], in [8], in [9], in experiment [10] and in [11] was > 30 µM (inactive) throughout.

`CNC(=O)c1ccc(-c2cnc3ncc(Cc4ccc5ncccc5c4)n3n2)cc1F` [CAPMATINIB]: the Kd (in experiment [1]; at LIM domain kinase 2; in [2]; in [3]; in experiment [4]; in experiment [5]) was > 30 µM (inactive) each time. Moreover, the Kd in experiment [6], in experiment [7], in [8], in [9], in experiment [10] and in [11] was > 30 µM (inactive) each time.

As for `C[C@@H](c1ccc2nccn2c1)n1nnc2ncc(-c3cnn(C)c3)nc21` [SAVOLITINIB], the Kd (at Actin-related protein 2; in experiment [1]; at LIM domain kinase 2; in [2]; in [3]; in [4]) was > 30 µM (inactive) in each case. The Kd in experiment [5], in experiment [6], in [7], in [8], in experiment [9] and in experiment [11] was > 30 µM (inactive) in each case.

As for `CN1CCC(COc2cnc(-c3cccc(Cn4nc(-c5cccc(C#N)c5)ccc4=O)c3)nc2)CC1` [TEPOTINIB], the Kd (at Actin-related protein 2; in [1]; at LIM domain kinase 2; in [2]; in experiment [3]; in experiment [4]) was > 30 µM (inactive) throughout. The Kd in [5], in experiment [6], in experiment [7], in [8], in [9] and in experiment [10] was > 30 µM (inactive) throughout.

Regarding `C1=C/COCc2cc(ccc2OCCN2CCCC2)Nc2nccc(n2)-c2cccc(c2)COC/1` [PACRITINIB], the Kd was 0.394 µM (active) in [1]; 52.1 µM (active) on LIM domain kinase 2; > 30 µM (inactive) in experiment [2]; > 30 µM (inactive) in experiment [3]; > 30 µM (inactive) in experiment [4]; > 30 µM (inactive) in [5]. Besides, the Kd in experiment [6], in experiment [7], in experiment [8], in experiment [9], in experiment [10] and in experiment [11] was > 30 µM (inactive) each time.

In the case of `COCCNCc1ccc(-c2cc3nccc(Oc4ccc(NC(=S)NC(=O)Cc5ccc(F)cc5)cc4F)c3s2)nc1` [GLESATINIB], the Kd (on Actin-related protein 2; in experiment [1]; on LIM domain kinase 2; in experiment [3]; in experiment [4]; in experiment [5]) was > 30 µM (inactive) throughout. Further, the Kd in experiment [6] was > 30 µM (inactive); in experiment [7] it was > 30 µM (inactive); in experiment [8], > 30 µM (inactive); in experiment [9], > 30 µM (inactive); in [10], > 30 µM (inactive); in experiment [11], 2.68 µM (active).

The values above are taken from ChEMBL document CHEMBL3991601, “The target landscape of clinical kinase drugs” (Science, 2017).
